Source: patent publication US20040067998A1, “Antifungal and/or antiparasitic pharmaceutical composition and novel indole derivatives as active principle of such a composition” (priority 2003, published 2004)
In brackets after ≈: the same amount, converted by molar mass. Several values for one entry are separate records, joined by “and”; a condition that tells them apart may be missing. Equal values may be shown once. Read-outs that look alike come from different tables or passages of the source.

Assays:
Assay type in all cases: cell-based
[1] = system: Candida albicans (strain n° CA980001); test: Antifungal activity on a clinical strain of Candida albicans (MTT colorimetric microplate test); settings: for CMI or CI80 Candida albicans (CA980001) / MIC: strain CA980001; for activity of inhibition of Candida albicans (in words): summary of Tables 27 to 40; for MIC: read-out: CMI or CI80 Candida albicans (CA980001)
[2] = system: Aspergillus fumigatus (strain n°AF 980003); test: Antifungal activity on a clinical strain of Aspergillus fumigatus (Alamar Blue microplate test); settings: for MIC / CMI or CI80 Aspergillus fumigatus (AF980003): strain AF980003; for MIC: read-out: CMI or CI80 Aspergillus fumigatus (AF980003); for activity against Aspergillus fumigatus (in words): summary of Tables 27 to 40
[3] = system: promastigote stage of Leishmania mexicana; test: Antiparasitic activity on the promastigote form of Leishmania (MTT); settings: for IC50: read-out: CI50 Leishmania mexicana Promastigotes
[4] = promastigotes, 36 h at 26° C., MTT
[5] = Candida albicans, 24 h at 37° C., MTT
[6] = Aspergillus fumigatus, Alamar Blue
[7] = Leishmania mexicana, promastigotes, 36 h at 26° C., MTT

Fc1ccc(C(C(n2ccc3ccccc32)n2nnc3ccccc32)n2ccnc2)cc1 (mixture of isomers) [compound 83]
CMI or CI80 Candida albicans (CA980001) [1]: 55 ± 5 μM and 23 ± 2 μg/mL | MIC [2]: >100 µM | CI50 Leishmania mexicana Promastigotes [3]: 1.85 ± 0.03 µg/mL | IC50 [3]: 4.4 ± 0.07 µM

CCN1CCc2cccc(C(c3cccc(Cl)c3)n3ccnc3)c21 (racemic) [compound 48]
CMI or CI80 Candida albicans (CA980001) ([1]; 24 h at 37° C., MTT): 0.06 ± 0.01 μM and 0.02 ± 0.01 μg/ml | activity of inhibition of Candida albicans (in words) [1]: most active | CMI or CI80 Aspergillus fumigatus (AF980003) ([2]; Alamar Blue): 58 ± 4 μM and 26 ± 2 μg/ml | activity against Aspergillus fumigatus (in words) [2]: strong activity | activity against Leishmania mexicana (in words) [3]: strong activity | CI50 Leishmania mexicana Promastigotes [3, 4]: 1 ± 0.3 µg/mL (≈ 2.96 µM) | IC50 [3, 4]: 3 ± 1 µM

CC(C)(C)c1ccc(Cn2cc(Cn3ccnc3)c3ccccc32)cc1.O=C(O)/C=C/C(=O)O [7f]
MIC ([1]; 24 h at 37° C., MTT): >100 µM | CMI or CI80 Aspergillus fumigatus (AF980003) ([2]; Alamar Blue): 70 ± 3 μM and 32.17 ± 3 μg/ml | CI50 Leishmania mexicana Promastigotes [3]: 3.9 ± 0.09 µg/mL | activity against Leishmania mexicana (in words) [3]: strong activity | IC50 [3]: 8.4 ± 0.5 µM

CCn1c(C(c2ccc(F)cc2)n2ccnc2)c(C)c2ccccc21.O=[N+]([O-])O (stereo not drawn) [31n]
CMI or CI80 Candida albicans (CA980001) [1]: 7 ± 0.3 μM and 2.77 ± 0.3 μg/mL | activity of inhibition of Candida albicans (in words) [1]: significant activity | CMI or CI80 Aspergillus fumigatus (AF980003) [2]: 16 ± 3 μM and 6 ± 1 μg/mL | activity against Aspergillus fumigatus (in words) [2]: most active | activity against Leishmania mexicana (in words) [3]: most active | IC50 ([3]; promastigotes): < 0.1 µM

Clc1ccc(Cn2cc(CCCCn3ccnc3)c3ccccc32)cc1.O=[N+]([O-])O [61n]
MIC [1]: >100 µM | MIC [2]: >100 µM | CI50 Leishmania mexicana Promastigotes [3]: 20.05 ± 0.3 µg/mL | IC50 [3]: 62 ± 0.3 µM

CCC(c1cn(Cc2ccc(Cl)cc2)c2ccccc12)n1ccnc1.O=[N+]([O-])O (stereo not drawn) [64n]
CMI or CI80 Candida albicans (CA980001) [1]: 36 ± 10 μM and 15 ± 4 μg/mL | CMI or CI80 Aspergillus fumigatus (AF980003) [2]: 57 ± 5 μM and 23.53 μg/mL | activity against Aspergillus fumigatus (in words) [2]: strong activity | CI50 Leishmania mexicana Promastigotes ([3]; promastigotes): 2.97 ± 0.02 µg/mL | IC50 ([3]; promastigotes): 7.2 ± 0.07 µM

CCCC(c1cn(Cc2ccc(Cl)cc2)c2ccccc12)n1ccnc1.O=C(O)/C=C/C(=O)O (stereo not drawn) [65f]
MIC [1]: >100 µM | MIC [2]: >100 µM | CI50 Leishmania mexicana Promastigotes [3]: 37.7 ± 4.5 µg/mL | IC50 [3]: 78.7 ± 9.5 µM

CCCCC(c1cn(Cc2ccc(Cl)cc2)c2ccccc12)n1ccnc1.O=C(O)/C=C/C(=O)O (stereo not drawn) [66f]
CMI or CI80 Candida albicans (CA980001) [1]: 7 ± 0.1 μM and 3.46 μg/mL | activity of inhibition of Candida albicans (in words) [1]: significant activity | MIC [2]: >100 µM | CI50 Leishmania mexicana Promastigotes ([3]; promastigotes): 2.6 ± 0.03 µg/mL | IC50 ([3]; promastigotes): 5.4 ± 0.06 µM

CC(c1cn(Cc2ccc(F)cc2)c2ccccc12)n1ccnc1.O=C(O)/C=C/C(=O)O (stereo not drawn) [67f]
CMI or CI80 Candida albicans (CA980001) [1]: 57 ± 2 μM and 25 ± 1 μg/mL | CMI or CI80 Aspergillus fumigatus (AF980003) [2]: 64 ± 2 μM and 28 ± 1 μg/mL | activity against Aspergillus fumigatus (in words) [2]: strong activity | CI50 Leishmania mexicana Promastigotes ([3]; promastigotes): 1.57 ± 1.2 µg/mL | IC50 ([3]; promastigotes): 3.6 ± 1.2 µM

CC(c1cn(Cc2ccc(Cl)cc2Cl)c2ccccc12)n1ccnc1.O=C(O)/C=C/C(=O)O (stereo not drawn) [68f]
CMI or CI80 Candida albicans (CA980001) [1]: 31 ± 7 μM and 15 ± 3 μg/mL | CMI or CI80 Aspergillus fumigatus (AF980003) [2]: 65 ± 3 μM and 31 ± 1 μg/mL | activity against Aspergillus fumigatus (in words) [2]: strong activity | CI50 Leishmania mexicana Promastigotes ([3]; promastigotes): 2.7 ± 0.05 µg/mL | IC50 ([3]; promastigotes): 5.7 ± 0.13 µM

Fc1ccc(Cn2ccc3cc(-c4nnn[nH]4)ccc32)cc1 [Cpsé 2, 1-(4-Fluorobenzyl)-5-(1H-tetrazol-5-yl)-1H-indole]
MIC [1, 5]: 64 ± 1 µM (≈ 18.8 µg/mL) | CMI or CI80 Candida albicans (CA980001) ([1]; 24 h at 37° C., MTT, listed as 4): 19.54 ± 1 µg/mL | MIC [2, 6]: > 100 µM | activity against Leishmania mexicana (in words) [3]: strong activity | IC50 [3, 7]: 3 µg/mL and 10 µM

Fc1ccc(Cn2c(Cn3ccnc3)cc3ccccc32)cc1 [Cpsé 3n, 1-(4-Fluorobenzyl)-2-(1H-imidazol-1-ylmethyl)-1H-indole]
MIC [1, 5]: 81 ± 14 µM (≈ 24.7 µg/mL) | CMI or CI80 Candida albicans (CA980001) ([1]; 24 h at 37° C., MTT, listed as 9): 32.46 ± 14 µg/mL | MIC [2, 6]: 21 ± 0.3 µM (≈ 6.41 µg/mL) | CMI or CI80 Aspergillus fumigatus (AF980003) ([2]; Alamar Blue): 8 ± 1.2 µg/mL | activity against Aspergillus fumigatus (in words) [2]: most active | activity against Leishmania mexicana (in words) [3]: strong activity | IC50 [3, 7]: 3.4 µg/mL and 8.5 µM

Clc1ccc(Cn2cc(Cn3ccnc3)c3cc(Br)ccc32)cc1 [Cpsé 10, 5-Bromo-1-(4-chlorobenzyl)-3-(1H-imidazol-1-ylmethyl)-1H-indole]
MIC [1, 5]: > 100 µM | MIC [2, 6]: > 100 µM | activity against Leishmania mexicana (in words) [3]: strong activity | IC50 [3, 7]: 3 µg/mL and 7.5 µM

CCn1cc(C(c2ccc(F)cc2)n2ccnc2)c2cc(Br)ccc21 (stereo not drawn) [Cpsé 46, 5-Bromo-1-ethyl-3-[(4-fluorophenyl)(1H-imidazol-1yl)methyl]-1H-indole]
MIC [1, 5]: > 100 µM | MIC [2, 6]: > 100 µM | IC50 [3, 7]: 65 µM and 21 µg/mL
